Reference: patent US10344065B2, “Method for treating Alzheimer's disease and method for downregulating protein aggregation in brain” (National Cheng Kung University, priority 2017, dated 2019)

Tests used:
[1] = tested on: pyramidal neurons in the hippocampi; assay: Melanoma B16F10-induced neurodegeneration in nude mice; type: in vivo, mouse; conditions: hippocampi of nude mice pretreated 3 consecutive weeks via tail veins, then B16F10 inoculated
Procedure: (§1) FIG. 4 includes photos showing that Zfra suppresses melanoma B16F10-mediated neurodegeneration in the hippocampus. Nude mice were preinjected with 100 μL, of sterile Milli-Q water or Zfra4-10 (1 mM in sterile water) in 3 consecutive weeks. After treatment for a week, these mice were inoculated with melanoma B16F10 cells on both flanks (2×10^5 cells in 100-μL, PBS). Mice were sacrificed when the tumor sizes grew up to 2000-3000 mm^3 in about a month. (A) Zfra blocked neurodegeneration in the hippocampus (top panel) and prevented the formation of TPC6AΔ plaques in the cortex (bottom panel), which negatively correlates with pS14-WWOX expression. Note the presence of condensed apoptotic nuclei in the hippocampal neurons in the control mice, (B) Metastasis of B16F10 cells to the lung was blocked in Zfra-treated mice. Compared to controls, Zfra suppressed p-S14WWOX expression in the lung by ˜72% suppression (three sections). […] (C and D) The non-spatial learning and memory were determined by novel object recognition task for both 3×Tg and Wwox+/− mice. […]
(§2) Six- to eight-week-old male nude (BALB/cAnN.Cg-Foxn1^nu/CrlNarl) mice (National Laboratory Animal Center, Taiwan) were used. […] Tumor volumes were measured daily and calculated using the equation, D×(d)^2/2, where D and d are the major and minor diameters, respectively. […] Z-cell distribution in organs was determined under fluorescence microscopy.

WWOX = WWOX phosphorylation in melanoma-bearing nude mice; type: in vivo, mouse; conditions: B16F10-bearing nude mice, n=3
Procedure: FIG. 4 includes photos showing that Zfra suppresses melanoma B16F10-mediated neurodegeneration in the hippocampus. Nude mice were preinjected with 100 μL, of sterile Milli-Q water or Zfra4-10 (1 mM in sterile water) in 3 consecutive weeks. After treatment for a week, these mice were inoculated with melanoma B16F10 cells on both flanks (2×10^5 cells in 100-μL, PBS). Mice were sacrificed when the tumor sizes grew up to 2000-3000 mm^3 in about a month. (A) Zfra blocked neurodegeneration in the hippocampus (top panel) and prevented the formation of TPC6AΔ plaques in the cortex (bottom panel), which negatively correlates with pS14-WWOX expression. Note the presence of condensed apoptotic nuclei in the hippocampal neurons in the control mice, (B) Metastasis of B16F10 cells to the lung was blocked in Zfra-treated mice. Compared to controls, Zfra suppressed p-S14WWOX expression in the lung by ˜72% suppression (three sections). […] (C and D) The non-spatial learning and memory were determined by novel object recognition task for both 3×Tg and Wwox+/− mice. […] Also, see data in FIG. 1.
Six- to eight-week-old male nude (BALB/cAnN.Cg-Foxn1^nu/CrlNarl) mice (National Laboratory Animal Center, Taiwan) were used. Mice were intravenously injected into tail veins with 100 μL of Zfra1-31 or Zfra4-10 (2 mM), or sterile water. After injection for 1-8 weeks, mouse melanoma B16F10 or human glioma 13-06-MG cells (2-2.5×10^6 cells/100-μL saline) were then inoculated in subcutaneous sites at both flanks. Tumor volumes were measured daily and calculated using the equation, D×(d)^2/2, where D and d are the major and minor diameters, respectively. At indicated time point, mouse organs, including brain, lung, spleen, and liver, were harvested and fixed with 4% paraformaldehyde. IHC was carried out using indicated specific antibodies to determine protein expression in tissues and organs. Where indicated, TMR-Zfra was used to stain spleen, brain, and lung tissues. Z-cell distribution in organs was determined under fluorescence microscopy.

melanoma B16F10 cells = assay: B16F10 metastasis to the lung in nude mice; type: in vivo, mouse
Procedure: as §1, §2

TPC6AΔ peptides = assay: Aggregation of serine-containing TPC6AΔ peptides in PBS; type: biochemical; conditions: 24 hours, room temperature
Procedure: (§3) FIG. 5 includes photos and diagrams showing that Zfra suppresses polymerization or aggregation of serine-containing TPC6AΔ and other peptides in PBS. Zfra4-10 was incubated with an indicated serine-containing peptide in PBS at room temperature for 24 hours (final 200 μM each peptide). The mixtures were subjected to nonreducing sodium dodecyl sulfate polyacrylamide gel electrophoresis (SDS-PAGE). (A) Full-length Zfra or red-fluorescent TMR-Zfra blocked aggregation of Aβ42 (lanes 3, 5, and 7). […] The membrane was stained with antibody against Aβ. (B) Zfra4-10 and one of the TPC6AΔ peptides were resuspended in Milli-Q water or PBS and incubated for 24 hours at room temperature. Zfra4-10 suppressed the polymerization of serine-containing peptides. Reduction in intensity=[1−(Z.P)/(Z+P)]×100%, where Z=Zfra4-10, P=an indicated peptide, and Z.P=peptide mixture. […] Zfra4-10 suppressed polymerization of these peptides in PBS.
Zfra and serine-containing peptides were synthesized by Genemed Synthesis (San Antonio, Tex., USA), (1) Zfra1-31, […] (SEQ ID NO: 2); (2) Zfra4-10, RRSSSCK (SEQ ID NO: 1); (3) WWOX7-21, AGLDDTDSEDELPPG (SEQ ID NO: 3); (4) pS14-WWOX7-21, AGLDDTDpSEDELPPG (SEQ ID NO: 4); (5). […]

[2] = biological target: T1, WWOX7-21, WWOX286-299, and ANKRD40266-281 peptides (Homo sapiens, UniProt Q9NZC7); assay: Polymerization of serine-containing WWOX and ANKRD40 peptides in PBS; type: biochemical
T1 construct: purchased Genemed Synthesis
Procedure: as §3
(§4) Zfra and serine-containing peptides were synthesized by Genemed Synthesis (San Antonio, Tex., USA), (1) Zfra1-31, […] (SEQ ID NO: 2); (2) Zfra4-10, RRSSSCK (SEQ ID NO: 1); (3) WWOX7-21, AGLDDTDSEDELPPG (SEQ ID NO: 3); (4) pS14-WWOX7-21, AGLDDTDpSEDELPPG (SEQ ID NO: 4); (5). WWOX286-299, DYWAMLAYNRSKLC (SEQ ID NO: 5); (6) pY287-WWOX286-299, DpYWAMLAYNRSKLC (SEQ ID NO: 6); (7) TPC6A24-38, DPGPGGQKMSLSVLE (SEQ ID NO: 7); (8) pS35-TPC6A24-38, DPGPGGQKMSLpSVLE (SEQ ID NO: 8); (9) TPC6A84-100, KDLWVAVFQKQMDSLR (SEQ ID NO: 9); (10) ANKRD40266-281, RIQNPSLRENDFIEIE (SEQ ID NO: 10); (11) pS271-ANKRD40266-281, RIQNPpSLRENDFIEIE (SEQ ID NO: 11); (12) tetramethylrhodamine-labeled Zfra (TMR-Zfra), the full-length Zfra1-31 was labeled with a red-fluorescent […] fluorescent probe tetramethylrhodamine. The peptide stocks were made as 10 mM in degassed sterile Milli-Q water. Each tube was flushed with nitrogen and stored in −80° C. freezer. For tail vein injections, peptides were freshly prepared in degassed Milli-Q water at 1-4 mM in 100-μL Milli-Q. GenBank accession for ANKRD40 is EU164539. Aβ peptides were from AnaSpec, (1) Aβ42: […] (SEQ ID NO: 12); (2) Aβ40: […] […]

[3] = tested on: WWOX7-21, WWOX286-299, and ANKRD40266-281 peptides; assay: as above; type: biochemical
Procedure: as §3, §4

aggregation of pY287-WWOX286-299 [2]: did not effectively block
Substance: RRSSSCK [Zfra4-10, truncated zinc finger-like peptide, amino acids 4-10 of Zfra]
apoptotic nuclei [1]: 0±1%
suppression of Ser14 phosphorylation of WWOX (pS14-WWOX) (WWOX; brain (hippocampus)): 87±5%
suppression of Tyr33 phosphorylation in WWOX (WWOX; brain): 2±6%
suppression of phosphorylation in Tyr33 in WWOX in the lung (WWOX; lung): 5±3%
B16F10 metastasis to the lung (melanoma B16F10 cells): blocked
aggregation of TPC6AΔ peptides (TPC6AΔ24-38, pS35-TPC6AΔ24-38, TPC6AΔ84-100) (TPC6AΔ peptides): effectively blocked
polymerization of phosphorylated WWOX7-21 and ANKRD40266-281 [3]: had apparent effects
polymerization or aggregation of non-phosphorylated WWOX7-21, WWOX286-299, ANKRD40266-281 [3]: effectively blocked
